The target in one test is T1, Adenosine receptor A1 (Homo sapiens, UniProt P30542).
T1 sequence (P30542 whole entry): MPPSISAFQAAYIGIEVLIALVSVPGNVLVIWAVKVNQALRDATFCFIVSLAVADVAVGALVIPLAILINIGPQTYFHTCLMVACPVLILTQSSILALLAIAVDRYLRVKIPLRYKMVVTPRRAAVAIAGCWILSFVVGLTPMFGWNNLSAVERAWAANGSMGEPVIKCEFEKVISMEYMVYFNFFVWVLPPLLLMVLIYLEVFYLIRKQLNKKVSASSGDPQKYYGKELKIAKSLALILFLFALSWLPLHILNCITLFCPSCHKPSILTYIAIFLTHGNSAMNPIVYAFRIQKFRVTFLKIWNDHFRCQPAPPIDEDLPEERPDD

The target of test [1] is T2, Alpha-2A adrenergic receptor (Homo sapiens, UniProt P08913).
T2 sequence (P08913 whole entry): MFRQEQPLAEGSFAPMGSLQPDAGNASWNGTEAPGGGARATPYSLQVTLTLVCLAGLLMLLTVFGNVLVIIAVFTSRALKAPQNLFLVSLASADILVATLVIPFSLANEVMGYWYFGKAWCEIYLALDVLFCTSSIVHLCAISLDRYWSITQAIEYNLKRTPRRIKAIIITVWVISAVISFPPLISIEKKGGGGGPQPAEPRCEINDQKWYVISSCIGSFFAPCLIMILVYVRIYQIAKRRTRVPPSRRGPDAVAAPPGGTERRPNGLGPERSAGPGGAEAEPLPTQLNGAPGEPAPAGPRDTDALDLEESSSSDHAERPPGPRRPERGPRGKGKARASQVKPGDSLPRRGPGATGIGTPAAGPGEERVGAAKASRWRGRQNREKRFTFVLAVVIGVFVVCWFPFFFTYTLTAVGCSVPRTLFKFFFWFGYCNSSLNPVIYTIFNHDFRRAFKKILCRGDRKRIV
In kind it is functional, cell-based.

Test [2] concerns the target T3, Type-1 angiotensin II receptor (Homo sapiens, UniProt P30556).
T3 sequence (P30556 whole entry): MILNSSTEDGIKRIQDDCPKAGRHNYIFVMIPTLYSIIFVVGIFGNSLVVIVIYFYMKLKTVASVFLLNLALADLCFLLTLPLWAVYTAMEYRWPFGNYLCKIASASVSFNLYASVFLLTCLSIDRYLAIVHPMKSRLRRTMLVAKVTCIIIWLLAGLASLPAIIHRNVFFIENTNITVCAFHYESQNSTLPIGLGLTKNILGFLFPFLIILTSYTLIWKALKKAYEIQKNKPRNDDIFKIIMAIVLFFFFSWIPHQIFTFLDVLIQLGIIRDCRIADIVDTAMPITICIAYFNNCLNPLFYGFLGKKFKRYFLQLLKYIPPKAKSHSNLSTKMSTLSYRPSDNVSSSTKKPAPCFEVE

The target in test [3] is T4, Muscarinic acetylcholine receptor M2 (Homo sapiens, UniProt P08172).
T4 sequence (P08172 whole entry): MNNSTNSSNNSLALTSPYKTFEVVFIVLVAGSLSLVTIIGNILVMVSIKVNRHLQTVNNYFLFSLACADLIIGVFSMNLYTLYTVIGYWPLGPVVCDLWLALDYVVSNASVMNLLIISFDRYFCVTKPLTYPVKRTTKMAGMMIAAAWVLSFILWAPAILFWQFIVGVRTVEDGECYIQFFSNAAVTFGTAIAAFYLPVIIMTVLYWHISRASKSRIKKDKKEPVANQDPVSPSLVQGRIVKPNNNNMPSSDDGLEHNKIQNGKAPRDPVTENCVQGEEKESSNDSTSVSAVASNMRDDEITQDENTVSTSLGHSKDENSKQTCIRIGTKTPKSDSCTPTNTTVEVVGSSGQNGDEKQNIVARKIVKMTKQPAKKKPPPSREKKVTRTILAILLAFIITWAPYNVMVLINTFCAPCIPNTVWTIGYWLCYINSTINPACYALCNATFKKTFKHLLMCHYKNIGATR
The class given is functional, cell-based.

Test [4] concerns the target Muscarinic acetylcholine receptor M3 (Homo sapiens, UniProt P20309).
The target of the next test is D(1A) dopamine receptor (Homo sapiens, UniProt P21728). In kind it is functional, cell-based.
The target in test [5] is 5-hydroxytryptamine receptor 2B (Homo sapiens, UniProt P41595). In kind it is functional, cell-based.
For another test, the target named is Melanocortin receptor 3 (Homo sapiens, UniProt P41968).
Test [6] deals with Delta-type opioid receptor (Homo sapiens, UniProt P41143).
The target in test [7] is 3',5'-cyclic-AMP phosphodiesterase 4D (Homo sapiens, UniProt Q08499). The class given is functional.
In test [8] the target is T5, Equilibrative nucleoside transporter 1 (Homo sapiens, UniProt Q99808).
T5 sequence (Q99808 whole entry): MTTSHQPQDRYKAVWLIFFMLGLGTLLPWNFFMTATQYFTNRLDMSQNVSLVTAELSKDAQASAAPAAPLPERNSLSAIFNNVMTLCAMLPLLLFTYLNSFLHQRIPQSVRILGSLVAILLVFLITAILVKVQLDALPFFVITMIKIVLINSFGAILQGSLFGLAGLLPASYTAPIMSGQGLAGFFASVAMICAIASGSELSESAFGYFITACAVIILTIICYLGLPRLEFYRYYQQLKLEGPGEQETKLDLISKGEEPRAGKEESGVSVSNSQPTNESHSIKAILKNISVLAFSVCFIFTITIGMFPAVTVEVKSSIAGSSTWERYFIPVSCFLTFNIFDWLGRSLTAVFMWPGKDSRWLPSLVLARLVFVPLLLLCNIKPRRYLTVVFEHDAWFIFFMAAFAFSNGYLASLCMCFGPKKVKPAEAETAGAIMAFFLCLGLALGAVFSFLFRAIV

Test [9] deals with T6, Sodium-dependent noradrenaline transporter (Homo sapiens, UniProt P23975).
The target of test [10] is T6, Sodium-dependent noradrenaline transporter. The source holds these as a separate data set.
Another test addresses D(3) dopamine receptor (Homo sapiens, UniProt P35462).

Structures are written as SMILES. Where only a bound is given, the exact number is not on record here.

As a reminder, the AC50 is the midpoint of the concentration-response curve, whichever way the signal moves. Lower therefore signals greater potency.
Note: assay procedure not described here.

5-hydroxytryptamine receptor 2B, sequence (P41595 whole entry): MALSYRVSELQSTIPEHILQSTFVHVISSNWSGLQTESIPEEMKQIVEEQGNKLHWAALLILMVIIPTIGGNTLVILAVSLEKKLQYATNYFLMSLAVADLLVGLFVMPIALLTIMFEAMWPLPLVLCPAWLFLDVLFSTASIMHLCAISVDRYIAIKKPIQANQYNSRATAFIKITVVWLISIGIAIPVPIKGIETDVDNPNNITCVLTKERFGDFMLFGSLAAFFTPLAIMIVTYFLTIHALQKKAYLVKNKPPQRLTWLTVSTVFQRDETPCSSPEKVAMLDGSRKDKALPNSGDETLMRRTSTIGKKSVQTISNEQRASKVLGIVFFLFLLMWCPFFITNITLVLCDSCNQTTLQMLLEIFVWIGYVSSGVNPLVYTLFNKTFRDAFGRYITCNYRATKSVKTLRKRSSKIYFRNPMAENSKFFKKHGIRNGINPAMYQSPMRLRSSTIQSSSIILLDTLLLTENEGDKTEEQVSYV
Muscarinic acetylcholine receptor M3, sequence (P20309 whole entry): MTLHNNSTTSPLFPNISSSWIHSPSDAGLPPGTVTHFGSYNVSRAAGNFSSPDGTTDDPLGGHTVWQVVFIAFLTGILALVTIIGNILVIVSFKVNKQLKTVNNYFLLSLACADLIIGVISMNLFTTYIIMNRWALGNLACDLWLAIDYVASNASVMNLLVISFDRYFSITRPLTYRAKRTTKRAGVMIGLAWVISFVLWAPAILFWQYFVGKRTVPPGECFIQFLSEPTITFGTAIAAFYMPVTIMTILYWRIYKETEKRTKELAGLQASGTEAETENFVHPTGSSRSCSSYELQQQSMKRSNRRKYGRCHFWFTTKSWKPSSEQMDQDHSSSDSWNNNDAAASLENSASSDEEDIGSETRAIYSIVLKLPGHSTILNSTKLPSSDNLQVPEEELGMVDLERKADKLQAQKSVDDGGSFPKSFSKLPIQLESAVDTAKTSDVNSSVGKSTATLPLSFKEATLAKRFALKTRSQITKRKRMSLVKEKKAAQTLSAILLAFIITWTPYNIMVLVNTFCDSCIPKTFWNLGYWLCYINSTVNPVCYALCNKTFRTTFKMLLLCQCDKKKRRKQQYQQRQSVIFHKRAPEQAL
D(3) dopamine receptor, sequence (P35462 whole entry): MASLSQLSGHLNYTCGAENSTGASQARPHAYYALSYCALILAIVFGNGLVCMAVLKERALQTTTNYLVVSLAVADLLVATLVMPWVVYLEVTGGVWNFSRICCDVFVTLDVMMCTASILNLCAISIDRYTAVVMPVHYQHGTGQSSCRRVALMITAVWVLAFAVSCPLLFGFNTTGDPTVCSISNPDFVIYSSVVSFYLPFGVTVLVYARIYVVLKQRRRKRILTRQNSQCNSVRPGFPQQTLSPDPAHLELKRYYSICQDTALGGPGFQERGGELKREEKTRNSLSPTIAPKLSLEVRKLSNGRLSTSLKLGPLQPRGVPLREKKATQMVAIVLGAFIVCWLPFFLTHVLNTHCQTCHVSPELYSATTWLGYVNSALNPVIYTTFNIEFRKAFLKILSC
T6 sequence (P23975 whole entry): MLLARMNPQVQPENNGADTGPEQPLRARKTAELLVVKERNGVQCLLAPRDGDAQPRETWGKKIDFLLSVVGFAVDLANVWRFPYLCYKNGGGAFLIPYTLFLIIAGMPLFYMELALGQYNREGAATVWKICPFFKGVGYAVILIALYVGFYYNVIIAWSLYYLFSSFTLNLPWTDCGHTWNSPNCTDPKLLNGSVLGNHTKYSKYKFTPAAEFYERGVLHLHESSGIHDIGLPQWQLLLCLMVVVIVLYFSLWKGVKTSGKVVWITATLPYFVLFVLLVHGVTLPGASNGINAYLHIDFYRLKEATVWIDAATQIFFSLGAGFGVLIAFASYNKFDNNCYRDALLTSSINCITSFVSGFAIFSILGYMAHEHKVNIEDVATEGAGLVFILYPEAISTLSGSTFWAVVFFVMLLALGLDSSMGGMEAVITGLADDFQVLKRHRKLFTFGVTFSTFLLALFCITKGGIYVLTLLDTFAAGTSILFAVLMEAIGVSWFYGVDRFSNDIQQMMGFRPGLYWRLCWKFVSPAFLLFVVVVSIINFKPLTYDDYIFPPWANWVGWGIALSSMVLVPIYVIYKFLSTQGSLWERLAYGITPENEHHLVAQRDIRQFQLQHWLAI
Melanocortin receptor 3, sequence (P41968 whole entry): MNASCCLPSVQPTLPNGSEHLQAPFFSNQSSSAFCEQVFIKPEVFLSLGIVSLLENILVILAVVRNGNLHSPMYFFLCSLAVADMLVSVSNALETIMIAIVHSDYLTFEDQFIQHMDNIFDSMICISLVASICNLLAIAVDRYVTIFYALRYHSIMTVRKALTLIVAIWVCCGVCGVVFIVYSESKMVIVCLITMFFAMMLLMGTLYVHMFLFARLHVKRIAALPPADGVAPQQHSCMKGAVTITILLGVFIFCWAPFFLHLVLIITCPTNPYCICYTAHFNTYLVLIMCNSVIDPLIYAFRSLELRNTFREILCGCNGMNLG
3',5'-cyclic-AMP phosphodiesterase 4D, sequence (Q08499 whole entry): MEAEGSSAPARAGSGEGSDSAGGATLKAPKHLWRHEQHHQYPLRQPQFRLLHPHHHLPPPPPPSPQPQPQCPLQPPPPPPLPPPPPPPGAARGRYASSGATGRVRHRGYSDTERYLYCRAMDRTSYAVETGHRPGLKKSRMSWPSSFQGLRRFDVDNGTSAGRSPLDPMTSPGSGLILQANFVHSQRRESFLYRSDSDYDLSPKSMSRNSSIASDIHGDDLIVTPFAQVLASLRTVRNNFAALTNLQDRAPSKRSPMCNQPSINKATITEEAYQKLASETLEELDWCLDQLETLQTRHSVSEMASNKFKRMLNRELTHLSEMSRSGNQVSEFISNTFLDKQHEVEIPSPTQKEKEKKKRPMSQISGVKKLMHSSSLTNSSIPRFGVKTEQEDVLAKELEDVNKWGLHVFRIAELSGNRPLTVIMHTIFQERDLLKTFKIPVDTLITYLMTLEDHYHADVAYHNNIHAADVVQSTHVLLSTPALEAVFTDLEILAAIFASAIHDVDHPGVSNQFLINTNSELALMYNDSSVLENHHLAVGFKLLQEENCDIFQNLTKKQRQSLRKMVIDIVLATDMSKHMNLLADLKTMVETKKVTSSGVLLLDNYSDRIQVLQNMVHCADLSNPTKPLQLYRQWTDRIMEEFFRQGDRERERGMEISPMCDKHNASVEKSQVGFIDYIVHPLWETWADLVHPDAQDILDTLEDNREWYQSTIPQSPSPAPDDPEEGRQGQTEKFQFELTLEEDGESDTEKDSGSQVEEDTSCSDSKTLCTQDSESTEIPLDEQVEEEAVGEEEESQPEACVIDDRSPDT
Delta-type opioid receptor, sequence (P41143 whole entry): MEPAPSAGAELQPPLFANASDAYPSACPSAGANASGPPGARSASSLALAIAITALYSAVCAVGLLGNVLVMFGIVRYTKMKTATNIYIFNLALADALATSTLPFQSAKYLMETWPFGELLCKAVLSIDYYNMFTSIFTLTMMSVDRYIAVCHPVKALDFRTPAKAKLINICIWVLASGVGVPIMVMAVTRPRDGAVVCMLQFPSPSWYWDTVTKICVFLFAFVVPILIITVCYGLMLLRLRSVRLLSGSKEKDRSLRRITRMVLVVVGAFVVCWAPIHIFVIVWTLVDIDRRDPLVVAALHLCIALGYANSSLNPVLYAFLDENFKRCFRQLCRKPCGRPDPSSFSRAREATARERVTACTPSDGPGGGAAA
D(1A) dopamine receptor, sequence (P21728 whole entry): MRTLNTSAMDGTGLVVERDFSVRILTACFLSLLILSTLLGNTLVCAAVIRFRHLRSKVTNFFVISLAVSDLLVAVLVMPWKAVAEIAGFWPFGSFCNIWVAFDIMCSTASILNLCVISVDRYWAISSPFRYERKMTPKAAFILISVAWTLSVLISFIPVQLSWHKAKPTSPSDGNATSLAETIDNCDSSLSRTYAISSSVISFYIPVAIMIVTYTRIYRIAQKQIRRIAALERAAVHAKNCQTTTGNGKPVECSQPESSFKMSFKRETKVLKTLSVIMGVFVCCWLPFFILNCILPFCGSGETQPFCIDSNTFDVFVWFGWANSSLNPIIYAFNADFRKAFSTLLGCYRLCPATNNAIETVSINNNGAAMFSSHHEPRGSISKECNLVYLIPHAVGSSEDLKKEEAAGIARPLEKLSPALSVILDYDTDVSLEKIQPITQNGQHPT

Consider `C=CCc1ccccc1OCC(O)CNC(C)C` (stereo unspecified) [ALPRENOLOL], for which the AC50 (at Adenosine receptor A1; in test [1]; in test [2]; in test [3]; in [4]; on D(1A) dopamine receptor) was above 30 µM each time. Also, the AC50 is above 0.3 µM in test [5]; above 30 µM at Melanocortin receptor 3; above 30 µM in test [6]; above 30 µM in test [7]; above 30 µM in test [8]; above 0.3 µM in test [9]. The AC50 is 30 µM in test [10] and above 30 µM on D(3) dopamine receptor.
Regarding `O=C(Cc1ccc(-c2ccccc2)cc1)Nc1ccccn1` [DIFENPIRAMIDE], the AC50 (in test [1]; in test [3]; in [4]; at D(1A) dopamine receptor; in test [5]; in [6]) was above 30 µM in each case. The AC50 in test [7] was above 30 µM; in test [9] it was 2.16 µM; at D(3) dopamine receptor it was above 30 µM.
With `O=C(OCC(O)CO)c1ccccc1Nc1ccnc2cc(Cl)ccc12` (stereo unspecified) [GLAFENINE], the AC50 at Adenosine receptor A1 is above 30 µM; in [1], above 30 µM; in [2], above 30 µM; in test [3], above 10 µM; in [4] it was above 30 µM; on D(1A) dopamine receptor it was above 30 µM. The AC50 was above 30 µM in [5]; above 30 µM on Melanocortin receptor 3; above 30 µM in test [6]; 0.17 µM in test [7]; 8.1 µM in [8]; 17 µM in test [9]. In addition, the AC50 (in [10]; at D(3) dopamine receptor) was above 30 µM each time.
For the compound `CC1(C)NC(=O)N(c2ccc([N+](=O)[O-])c(C(F)(F)F)c2)C1=O` [NILUTAMIDE], the AC50 (on Adenosine receptor A1; in [1]; in test [2]; in [3]; in [4]; on D(1A) dopamine receptor) was above 30 µM in each case. Moreover, the AC50 in test [5] is above 30 µM; at Melanocortin receptor 3 it was above 30 µM; in test [6], above 30 µM; in test [7], 28 µM; in [8], above 30 µM; in test [9] it was above 30 µM. Also, the AC50 (in test [10]; at D(3) dopamine receptor) was above 30 µM throughout.
Take `CC[C@H]1[C@@H](O)[C@@H]2[C@H](CC[C@]3(C)[C@@H]([C@H](C)CCC(=O)O)CC[C@@H]23)[C@@]2(C)CC[C@@H](O)C[C@@H]12` [OBETICHOLIC ACID]: the AC50 was above 30 µM on Adenosine receptor A1; above 30 µM in [1]; above 30 µM in [2]; 16 µM in test [3]; above 30 µM in [4]; above 30 µM at D(1A) dopamine receptor. Also, the half-maximal activity concentration (AC50) (in test [5]; on Melanocortin receptor 3; in [6]; in test [7]; in test [8]; in test [9]) was above 30 µM each time. The AC50 (in test [10]; on D(3) dopamine receptor) was above 30 µM in each case.
For `COCCCN1CCC(NC(=O)c2cc(Cl)c(N)c3c2OCC3)CC1` [PRUCALOPRIDE], the AC50 (at Adenosine receptor A1; in [1]; in test [2]; in test [3]; in test [4]; at D(1A) dopamine receptor) was above 30 µM in each case. Besides, the AC50 (in [5]; on Melanocortin receptor 3; in test [6]; in test [7]; in test [8]; in [9]) was above 30 µM throughout. Further, the AC50 (in [10]; at D(3) dopamine receptor) was above 30 µM throughout.
Consider `NS(=O)(=O)Cc1noc2ccccc12` [ZONISAMIDE], for which the half-maximal activity concentration (AC50) on Adenosine receptor A1 is above 10 µM; in test [1], above 10 µM; in test [2], above 10 µM; in test [3] it was above 10 µM; in test [4], above 30 µM; at D(1A) dopamine receptor, above 10 µM. Also, the half-maximal activity concentration (AC50) at Melanocortin receptor 3 was above 10 µM; in test [6] it was above 30 µM; in [7], above 30 µM; in [8] it was above 10 µM; in test [10], above 10 µM; on D(3) dopamine receptor it was above 30 µM.

Values taken from ChEMBL document CHEMBL5291721, “A preclinical secondary pharmacology resource illuminates target-adverse drug reaction associations of marketed drugs” (Nat Commun, 2023).
